Key:
Par-4 = conditions: mouse embryonic fibroblast (MEF) cells; cited from earlier work
[1] = tested on: tumor cell lines of renal cancer; assay: In vitro 3D combination study, clonogenic assay, both cell lines; type: cell-based; conditions: Homo sapiens, A498; compound alone, colony formation in soft agar, range over RXF 1183L and RXF A-498; read-out: Relative IC50, single agent
Method: The objective of this study was to assess anti-tumor efficacy of ketorolac in combination with sunitinib in a 5×5 matrix combination format against tumor cell lines of renal cancer using a clonogenic assay with image analysis as read-out.
The clonogenic assay was carried out in a 96 well plate format using ultra low attachment plates. For each test cells were prepared as described above, and assay plates were prepared as follows: each test well contained a layer of semi-solid medium with tumor cells (50 μl), and a second layer of medium supernatant with or without test compounds (100 μl). The cell layer consisted of 3×10^3 to 1×10^4 tumor cells per well, which were seeded in 50 μl/well cell culture medium (IMDM, supplemented with 20% (v/v) fetal calf serum, 0.01% (w/v) gentamicin, and 0.4% (w/v) agar). The soft agar layer was immediately covered with 90 μl of the same culture medium without agar. After 24 h the test compounds were added after serial dilution in IMDM and transfer in cell culture medium, and left on the cells for the duration of the experiment (continuous exposure, 100 μL total drug overlay). Every plate included six untreated control wells and drug-treated groups in a layout as shown above. […] At the time of maximum colony formation, counts were performed with an automatic image analysis system (Celllnsight NXT, Thermo Scientific). […]

A498 cells = assay: In vivo animal efficacy study, subcutaneous A498 tumor fragments; design: species or system female athymic nude mice; conditions: for Mean Tumor Volume / Tumor Growth Inhibition (% TGI): Sunitinib 20 mg/kg p.o. q.d. × 21 (G2)
Method: 10 Healthy female athymic nude mice were recruited for the donor cell inoculation. Animals were subcutaneously injected at flank region with 10 million A498 cells suspended in 200 μl of media and matrigel. Animals were monitored for solid tumor growth. […] Tumors were fragmented in to ˜30 mg size. […] [table] The tumor sizes were measured weekly twice from the date of tumor appearance till the end of the experiment. Tumor size was measured by digital vernier caliper (MITUTOYO) by measuring length (L=longest axis) and width (W=shortest axis). Tumor Volume was calculated using the formula: […] Form the tumor volume data mean tumor volume and % tumor growth inhibition (% TGI) were calculated (SEM=standard error of mean).

Row | SMILES | PAR-4 secretion (Par-4) | IC50 [1] | Mean Tumor Volume (A498 cells; day 1) | Tumor Growth Inhibition (% TGI) (A498 cells; day 1) | Mean Tumor Volume (A498 cells; day 6) | Tumor Growth Inhibition (% TGI) (A498 cells; day 6) | Mean Tumor Volume (A498 cells; day 9) | Tumor Growth Inhibition (% TGI) (A498 cells; day 9) | Mean Tumor Volume (A498 cells; day 13) | Tumor Growth Inhibition (% TGI) (A498 cells; day 13) | Mean Tumor Volume (A498 cells; day 16) | Tumor Growth Inhibition (% TGI) (A498 cells; day 16) | Mean Tumor Volume (A498 cells; day 20) | Tumor Growth Inhibition (% TGI) (A498 cells; day 20) | Maximum tumor inhibition (A498 cells; Sunitinib alone at a dose of 20 mg/kg)
1 | COc1ccc(C2=N[C@@H](c3ccc(Cl)cc3)[C@@H](c3ccc(Cl)cc3)N2C(=O)N2CCNC(=O)C2)c(OC(C)C)c1 [Nutlin-3a] | stimulated PAR-4 secretion at micromolar levels | – | – | – | – | – | – | – | – | – | – | – | – | – | –
2 | CCN(CC)CCNC(=O)c1c(C)[nH]c(/C=C2\C(=O)Nc3ccc(F)cc32)c1C [Sunitinib] | – | 1.5 to 4.59 µM | 145.40 mm^3 | 1.47% | 174.90 mm^3 | 47.31% | 261.95 mm^3 | 43.52% | 340.62 mm^3 | 44.80% | 448.05 mm^3 | 53.39% | 630.25 mm^3 | 50.78% | 51%
